Read-outs that look alike come from different tables or passages of the source.
Tests used:
[1] = tested on: SARS-CoV-2; assay: microbe, parasite or virus in culture; format: cell-based
[2] = in vitro; conditions: African green monkey
[3] = tested on: Vero E6 cells
[4] = tested on: SARS-CoV-2; assay: microbe, parasite or virus in culture; format: cell-based; conditions: Severe acute respiratory syndrome coronavirus 2, Vero C1008, 96 h
[5] = CPE assay, percent cell protection, moi 0.05, 4 days, read-out: EC50
[6] = Severe acute respiratory syndrome coronavirus 2, Vero C1008, Table 2, naproxen/ketotifen experiment
[7] = Table 2, column 50 μM (head: Concentration Naproxen)

In the case of `COc1ccc2c(c1)c(CC(=O)O)c(C)n2C(=O)c1ccc(Cl)cc1` [Indomethacin, 2-{1-[(4-Chlorophenyl)-carbonyl]-5-methoxy-2-methyl-1H-indol-3-yl}acetic acid], the “inhibition of SARS-CoV-2 / viral yield (in words)” value [1] is reported as “inhibited SARS-CoV-2”, the EC50 ([1]; Severe acute respiratory syndrome coronavirus 2, Vero C1008, Table 4, indomethacin titrated, alone or with fixed ketotifen) is reported as 100 µM and the inhibition at 25 µM ([1]; Severe acute respiratory syndrome coronavirus 2, Vero C1008, Table 4, Concentration Indomethacin 25 μM, read-out: percentage inhibition of SARS-CoV-2) is reported as 0%. For the same compound, the inhibition at 50 µM ([1]; Severe acute respiratory syndrome coronavirus 2, Vero C1008, Table 4, Concentration Indomethacin 50 μM, read-out: percentage inhibition of SARS-CoV-2) was 0%, the inhibition at 100 µM ([1]; Severe acute respiratory syndrome coronavirus 2, Vero C1008, Table 4, Concentration Indomethacin 100 μM, read-out: percentage inhibition of SARS-CoV-2) was 50% and the CC50 [2] was > 400 µM. The Percentage viability ([3]; concentration 0.39 μM) was 98%, the Percentage viability ([3]; concentration 0.78 μM) was 106% and the Percentage viability ([3]; concentration 1.56 μM) was 111%. The Percentage viability ([3]; concentration 3.13 μM) was 117%, the Percentage viability ([3]; concentration 6.25 μM) was 124% and the Percentage viability ([3]; concentration 12.5 μM) was 124%. The Percentage viability ([3]; concentration 25 μM) was 125%, the Percentage viability ([3]; concentration 50 μM) was 143% and the Percentage viability ([3]; concentration 100 μM) was 143%. For the same compound, the EC50 [4, 5] was > 400 µM.
With `CN1CCC(=C2c3ccccc3CC(=O)c3sccc32)CC1` [Ketotifen] the “inhibition of SARS-CoV-2 / viral yield (in words)” value [1] was “inhibited SARS-CoV-2”, the EC50 [1, 6] was 48.9 µM and the EC50 ([1]; Severe acute respiratory syndrome coronavirus 2, Vero C1008, Table 3, ketotifen titrated, alone or with fixed indomethacin) was 47.1 µM. It also gave an inhibition at 6.25 µM ([1]; Severe acute respiratory syndrome coronavirus 2, Vero C1008, Table 3, Concentration Ketotifen 6.25 μM, read-out: percentage inhibition of SARS-CoV-2) of 0%, an inhibition at 12.5 µM ([1]; Severe acute respiratory syndrome coronavirus 2, Vero C1008, Table 3, Concentration Ketotifen 12.5 μM, read-out: percentage inhibition of SARS-CoV-2) of 0% and an inhibition at 25 µM ([1]; Severe acute respiratory syndrome coronavirus 2, Vero C1008, Table 3, Concentration Ketotifen 25 μM, read-out: percentage inhibition of SARS-CoV-2) of 0%. For the same compound, the inhibition at 50 µM ([1]; Severe acute respiratory syndrome coronavirus 2, Vero C1008, Table 3, Concentration Ketotifen 50 μM, read-out: percentage inhibition of SARS-CoV-2) was 60%, the “percentage inhibition of SARS-CoV-2” value [1, 7] was 68% and the CC50 [2] was 139 µM. The Percentage viability ([3]; concentration 0.20 μM) was 110%, the Percentage viability ([3]; concentration 0.39 μM) was 103% and the Percentage viability ([3]; concentration 0.78 μM) was 101%. It also gave a Percentage viability ([3]; concentration 1.56 μM) of 109%, a Percentage viability ([3]; concentration 3.13 μM) of 121% and a Percentage viability ([3]; concentration 6.25 μM) of 125%. It also gave a Percentage viability ([3]; concentration 12.5 μM) of 122%, a Percentage viability ([3]; concentration 25 μM) of 104% and a Percentage viability ([3]; concentration 50 μM) of 86%. For the same compound, the EC50 [4] was > 139 µM.
For `COc1ccc2cc(C(C)C(=O)O)ccc2c1` (stereo not drawn) [Naproxen, 6-methoxy-α-methyl-2-naphthaleneacetic acid], the EC50 [1, 6] was > 100 µM, the “percentage inhibition of SARS-CoV-2” value ([1]; Table 2, column 6.25 μM (head: Concentration Naproxen)) was 0% and the “percentage inhibition of SARS-CoV-2” value ([1]; Table 2, column 12.5 μM (head: Concentration Naproxen)) was 21%. The “percentage inhibition of SARS-CoV-2” value ([1]; Table 2, column 25 μM (head: Concentration Naproxen)) was 0%, the “percentage inhibition of SARS-CoV-2” value [1, 7] was 0% and the “percentage inhibition of SARS-CoV-2” value ([1]; Table 2, column 100 μM (head: Concentration Naproxen)) was 0%. The EC50 [4, 5] was > 400 µM.
In the case of `CCC(CC)COC(=O)[C@H](C)N[P@](=O)(OC[C@H]1O[C@@](C#N)(c2ccc3c(N)ncnn23)[C@H](O)[C@@H]1O)Oc1ccccc1` [Remdesivir], the EC50 [4] is reported as 2.9 µM.

Reference: patent US20240033259A1, “COMPOSITIONS AND METHODS FOR TREATING OR PREVENTING DISEASE ASSOCIATED WITH BETA CORONAVIRUS INFECTION” (priority 2020, published 2024)
